Experimental data published in PubChem BioAssay (NCI).
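Tested at 5 concentrations; 48 h exposure; 96-well plates; endpoints linearly interpolated, else capped at highest concentration. The concentration for full growth arrest is given as TGI.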

Assays:
Experiment in all cases: NCI-60 cell line screen, 48 h
[1] = tested on: 786-0 renal
[2] = tested on: A498 renal
[3] = tested on: A549 NSCLC
[4] = tested on: ACHN renal
[5] = tested on: BT-549 breast
[6] = tested on: CCRF-CEM leukemia
[7] = tested on: COLO 205 colon
[8] = tested on: DU-145 prostate
[9] = tested on: EKVX NSCLC
[10] = tested on: HCC-2998 colon
[11] = tested on: HCT-116 colon
[12] = tested on: HCT-15 colon
[13] = tested on: HL-60(TB) leukemia
[14] = tested on: HOP-62 NSCLC
[15] = tested on: HOP-92 NSCLC
[16] = tested on: HS 578T breast
[17] = tested on: HT29 colon
[18] = tested on: IGROV1 ovarian
[19] = tested on: K-562 leukemia
[20] = tested on: KM12 colon
[21] = tested on: LOX IMVI melanoma
[22] = tested on: M14 melanoma
[23] = tested on: MALME-3M melanoma
[24] = tested on: MCF7 breast
[25] = tested on: MDA-MB-231 breast
[26] = tested on: MDA-N
[27] = tested on: MOLT-4 leukemia
[28] = tested on: NCI-H226 lung
[29] = tested on: NCI-H23 lung
[30] = tested on: NCI-H460 lung
[31] = tested on: NCI-H522 lung
[32] = tested on: NCI/ADR-RES ovarian
[33] = tested on: OVCAR-3 ovarian
[34] = tested on: OVCAR-4 ovarian
[35] = tested on: OVCAR-5 ovarian
[36] = tested on: OVCAR-8 ovarian
[37] = tested on: PC-3 prostate
[38] = tested on: RPMI-8226 leukemia
[39] = tested on: RXF 393 renal
[40] = tested on: SF-268 CNS
[41] = tested on: SF-295 CNS
[42] = tested on: SF-539 CNS
[43] = tested on: SK-MEL-28 melanoma
[44] = tested on: SK-MEL-5 melanoma
[45] = tested on: SK-OV-3 ovarian
[46] = tested on: SN12C renal
[47] = tested on: SNB-19 CNS
[48] = tested on: SNB-75 CNS
[49] = tested on: SR leukemia
[50] = tested on: SW-620 colon
[51] = tested on: T-47D breast
[52] = tested on: TK-10 renal
[53] = tested on: U251 CNS
[54] = tested on: UACC-257 melanoma
[55] = tested on: UACC-62 melanoma
[56] = tested on: UO-31 renal
[57] = tested on: CAKI-1 renal
[58] = tested on: MDA-MB-435
[59] = tested on: SK-MEL-2 melanoma

Q: With `Cc1[nH]c2nccn2c(=O)c1CCCl` as the molecule, how does the TGI [1] read?
A: 64.6 µM

Q: And the TGI [2]?
A: 61.8 µM

Q: What about the TGI [3] of the same molecule?
A: > 100 µM

Q: What about the TGI [4] of the same molecule?
A: 55 µM

Q: And the TGI [5]?
A: 62.5 µM

Q: What about the TGI [6] of the same molecule?
A: 85.4 µM

Q: What about the TGI [7] of the same molecule?
A: > 100 µM

Q: And the TGI [8]?
A: 66.7 µM

Q: What about the TGI [9] of the same molecule?
A: > 100 µM

Q: And the TGI [10]?
A: 34.1 µM

Q: What about the TGI [11] of the same molecule?
A: 32.3 µM

Q: What about the TGI [12] of the same molecule?
A: > 100 µM

Q: And the TGI [13]?
A: 57.2 µM

Q: And the TGI [14]?
A: 60 µM

Q: And the TGI [15]?
A: 66.1 µM

Q: And the TGI [16]?
A: > 100 µM

Q: And the TGI [17]?
A: > 100 µM

Q: What about the TGI [18] of the same molecule?
A: 61.8 µM

Q: What about the TGI [19] of the same molecule?
A: 93.5 µM

Q: And the TGI [20]?
A: 42.2 µM

Q: What about the TGI [21] of the same molecule?
A: 33.6 µM

Q: And the TGI [22]?
A: > 100 µM

Q: And the TGI [23]?
A: 41.3 µM

Q: And the TGI [24]?
A: > 100 µM

Q: What about the TGI [25] of the same molecule?
A: > 100 µM

Q: And the TGI [26]?
A: 46.6 µM

Q: What about the TGI [27] of the same molecule?
A: 52.9 µM

Q: What about the TGI [28] of the same molecule?
A: > 100 µM

Q: And the TGI [29]?
A: 41.6 µM

Q: And the TGI [30]?
A: 49.5 µM

Q: What about the TGI [31] of the same molecule?
A: 49.9 µM

Q: And the TGI [32]?
A: 58.1 µM

Q: What about the TGI [33] of the same molecule?
A: 62.1 µM

Q: What about the TGI [34] of the same molecule?
A: 40 µM

Q: What about the TGI [35] of the same molecule?
A: > 100 µM

Q: What about the TGI [36] of the same molecule?
A: 87.6 µM

Q: And the TGI [37]?
A: > 100 µM

Q: What about the TGI [38] of the same molecule?
A: 62.9 µM

Q: What about the TGI [39] of the same molecule?
A: 38.9 µM

Q: And the TGI [40]?
A: > 100 µM

Q: And the TGI [41]?
A: > 100 µM

Q: And the TGI [42]?
A: 36.6 µM

Q: And the TGI [43]?
A: > 100 µM

Q: What about the TGI [44] of the same molecule?
A: 31.3 µM

Q: And the TGI [45]?
A: 63 µM

Q: And the TGI [46]?
A: 45.4 µM

Q: What about the TGI [47] of the same molecule?
A: > 100 µM

Q: And the TGI [48]?
A: > 100 µM

Q: And the TGI [49]?
A: 90.7 µM

Q: And the TGI [50]?
A: 50.8 µM

Q: What about the TGI [51] of the same molecule?
A: > 100 µM

Q: And the TGI [52]?
A: 96.7 µM

Q: What about the TGI [53] of the same molecule?
A: 43.8 µM

Q: What about the TGI [54] of the same molecule?
A: > 100 µM

Q: And the TGI [55]?
A: 53.7 µM

Q: What about the TGI [56] of the same molecule?
A: 91.4 µM

Q: How did the TGI [1] turn out when `COc1cc(Br)cc2cc(C3=CSC4=NCCN34)c(=O)oc12` was run?
A: 32.7 µM

Q: And the TGI [3]?
A: 50.8 µM

Q: What about the TGI [4] of the same molecule?
A: 80.6 µM

Q: And the TGI [5]?
A: 42.2 µM

Q: What about the TGI [57] of the same molecule?
A: > 100 µM

Q: And the TGI [6]?
A: 56.8 µM

Q: What about the TGI [7] of the same molecule?
A: 43.5 µM

Q: And the TGI [8]?
A: 33 µM

Q: What about the TGI [9] of the same molecule?
A: 32.3 µM

Q: What about the TGI [11] of the same molecule?
A: 32.2 µM

Q: What about the TGI [12] of the same molecule?
A: 37.2 µM

Q: And the TGI [13]?
A: 77.6 µM

Q: And the TGI [14]?
A: 34.9 µM

Q: And the TGI [15]?
A: 36.7 µM

Q: And the TGI [17]?
A: 34.7 µM

Q: What about the TGI [18] of the same molecule?
A: 32.5 µM

Q: What about the TGI [19] of the same molecule?
A: > 100 µM

Q: And the TGI [20]?
A: 39 µM

Q: And the TGI [21]?
A: 33.7 µM

Q: And the TGI [22]?
A: 49.4 µM

Q: And the TGI [24]?
A: 33 µM

Q: And the TGI [25]?
A: 36 µM

Q: What about the TGI [58] of the same molecule?
A: 33.9 µM

Q: And the TGI [26]?
A: 34.4 µM

Q: What about the TGI [27] of the same molecule?
A: 69.5 µM

Q: And the TGI [29]?
A: 40.8 µM

Q: What about the TGI [30] of the same molecule?
A: 40.3 µM

Q: And the TGI [32]?
A: > 100 µM

Q: And the TGI [33]?
A: 33.1 µM

Q: What about the TGI [34] of the same molecule?
A: 37.2 µM

Q: What about the TGI [35] of the same molecule?
A: 54.5 µM

Q: What about the TGI [36] of the same molecule?
A: 34.4 µM

Q: And the TGI [37]?
A: 35.6 µM

Q: What about the TGI [38] of the same molecule?
A: 55.3 µM

Q: What about the TGI [39] of the same molecule?
A: 34.6 µM

Q: And the TGI [41]?
A: 35.8 µM

Q: And the TGI [42]?
A: 37.4 µM

Q: What about the TGI [59] of the same molecule?
A: 40 µM

Q: What about the TGI [43] of the same molecule?
A: 59.4 µM

Q: What about the TGI [44] of the same molecule?
A: 35.3 µM

Q: And the TGI [45]?
A: 66.2 µM

Q: And the TGI [46]?
A: 32 µM

Q: What about the TGI [47] of the same molecule?
A: 33.4 µM

Q: What about the TGI [48] of the same molecule?
A: 43.3 µM

Q: What about the TGI [49] of the same molecule?
A: 63.4 µM

Q: And the TGI [50]?
A: 49.1 µM

Q: And the TGI [51]?
A: 42.2 µM

Q: And the TGI [52]?
A: 34.8 µM

Q: What about the TGI [53] of the same molecule?
A: 32.6 µM

Q: And the TGI [54]?
A: 65.8 µM

Q: And the TGI [55]?
A: 33.6 µM

Q: What about the TGI [56] of the same molecule?
A: 35.6 µM
